Results published in patent US6737383B1, “Herbicidal oxadiazolidines” (priority 1999, dated 2004).

Key:
blackgrass = test: Test B pre/postemergence blackgrass; assay type: in vivo, Alopecurus myosuroides
Outline: (§1)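 Test chemicals in a non-phytotoxic solvent mixture with surfactant were sprayed preemergence onto planted seeds and postemergence onto plants 2 to 18 cm tall (1- to 4-leaf stage). After twelve to sixteen days in a greenhouse, injury was visually rated against untreated controls from 0 (no effect) to 10 (complete control).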

cocklebur = test: Test B pre/postemergence cocklebur; assay type: in vivo, Xanthium strumarium
Outline: as §1

giant foxtail = test: Test B pre/postemergence giant foxtail; assay type: in vivo, Setaria faberii
Outline: as §1

morningglory = test: Test B pre/postemergence morningglory; assay type: in vivo, Ipomoea hederacea
Outline: as §1

pigweed = test: Test B pre/postemergence pigweed; assay type: in vivo, Amaranthus retroflexus
Outline: as §1

rape = test: Test B pre/postemergence rape; assay type: in vivo, Brassica napus
Outline: as §1

soybean = test: Test B pre/postemergence soybean; assay type: in vivo, Glycine max
Outline: as §1

sugar beet = test: Test B pre/postemergence sugar beet; assay type: in vivo, Beta vulgaris
Outline: as §1

velvetleaf = test: Test B pre/postemergence velvetleaf; assay type: in vivo, Abutilon theophrasti
Outline: as §1

wheat = test: Test B pre/postemergence wheat; assay type: in vivo, Triticum aestivum
Outline: as §1

wild oat = test: Test B pre/postemergence wild oat; assay type: in vivo, Avena fatua
Outline: as §1

purple nutsedge = test: Test B pre/postemergence purple nutsedge; assay type: in vivo, Cyperus rotundus
Outline: as §1

rice = test: Test B flood test rice; assay type: in vivo, Oryza sativa
Outline: (§2)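 Each value is a visual injury score relative to controls, with 10 meaning complete control and 0 no effect. Evaluation took place twelve to sixteen days after the 2-leaf-stage plants were treated and kept in the greenhouse.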

smallflower flatsedge = test: Test B flood test smallflower flatsedge; assay type: in vivo, Cyperus difformis
Outline: as §2

duck salad = test: Test B flood test duck salad; assay type: in vivo, Heteranthera limosa
Outline: as §2

bamyardgrass = test: Test B flood test barnyardgrass; assay type: in vivo, Echinochloa crus-galli
Outline: as §2

[1] = Postemergence, Rate 62 g/ha, scale of 0 to 10, 0 is no effect, 10 is complete control
[2] = Postemergence, Rate 125 g/ha, scale 0 to 10, 0 is no effect, 10 is complete control
[3] = Postemergence, Rate 500 g/ha, scale 0 to 10, 0 is no effect, 10 is complete control
[4] = Preemergence, Rate 62 g/ha, scale 0 to 10 (0 no effect, 10 complete control)
[5] = Preemergence, Rate 125 g/ha, scale 0 to 10, 0 is no effect, 10 is complete control
[6] = Preemergence, Rate 500 g/ha, scale of 0 to 10 where 0 is no effect and 10 is complete control
[7] = Rate 250 g/ha, Postemergence, scale of 0 to 10 where 0 is no effect and 10 is complete control
[8] = Rate 62 g/ha, flood test species, Pre-emergence, visual evaluation after twelve to sixteen days
[9] = Rate 125 g/ha, under heading Pre-emergence, flood test species, visual evaluation after twelve to sixteen days
[10] = Rate 250 g/ha, Pre-emergence (flood test species), scale 0 to 10, 0 is no effect, 10 is complete control
[11] = Rate 500 g/ha, Pre-emergence section of Table B, 0 to 10 scale (0 no effect, 10 complete control)

SMILES: CC(C)N(C(=O)n1oc(=O)n(CC2CCC2)c1=O)c1ccc(Cl)cc1 [Compound 550]
- Blackgrass plant response rating (blackgrass; [1]): 0
- Blackgrass plant response rating (blackgrass; [2]): 0
- Plant response rating, Blackgrass (blackgrass; [3]): 2
- Blackgrass plant response rating (blackgrass; [4]): 0
- Blackgrass plant response rating (blackgrass; [5]): 2
- Blackgrass plant response rating (0 to 10 scale) (blackgrass; Preemergence, Rate 250 g/ha): 7
- Blackgrass plant response rating (blackgrass; [6]): 9
- Plant response rating, Blackgrass (blackgrass; [7]): 2
- Cocklebur plant response rating (cocklebur; [1]): 0
- Cocklebur plant response rating (cocklebur; [2]): 0
- Plant response rating, Cocklebur (cocklebur; [3]): 2
- Cocklebur plant response rating (cocklebur; [4]): 0
- Cocklebur plant response rating (cocklebur; [5]): 0
- Cocklebur plant response rating (0 to 10 scale) (cocklebur; Preemergence, Rate 250 g/ha): 0
- Cocklebur plant response rating (cocklebur; [6]): 0
- Plant response rating, Cocklebur (cocklebur; [7]): 1
- Giant foxtail plant response rating (giant foxtail; [1]): 2
- Giant foxtail plant response rating (giant foxtail; [2]): 6
- Plant response rating, Giant foxtail (giant foxtail; [3]): 9
- Giant foxtail plant response rating (giant foxtail; [4]): 7
- Giant foxtail plant response rating (giant foxtail; [5]): 9
- Giant foxtail plant response rating (0 to 10 scale) (giant foxtail; Preemergence, Rate 250 g/ha): 10
- Giant foxtail plant response rating (giant foxtail; [6]): 10
- Plant response rating, Giant foxtail (giant foxtail; [7]): 9
- Morningglory plant response rating (morningglory; [1]): 1
- Morningglory plant response rating (morningglory; [2]): 1
- Plant response rating, Morningglory (morningglory; [3]): 8
- Morningglory plant response rating (morningglory; [4]): 0
- Morningglory plant response rating (morningglory; [5]): 0
- Morningglory plant response rating (0 to 10 scale) (morningglory; Preemergence, Rate 250 g/ha): 0
- Morningglory plant response rating (morningglory; [6]): 0
- Plant response rating, Morningglory (morningglory; [7]): 9
- Redroot pigweed plant response rating (pigweed; [1]): 0
- Redroot pigweed plant response rating (pigweed; [2]): 0
- Plant response rating, Redroot pigweed (pigweed; [3]): 0
- Redroot pigweed plant response rating (pigweed; [4]): 7
- Redroot pigweed plant response rating (pigweed; [5]): 9
- Redroot pigweed plant response rating (0 to 10 scale) (pigweed; Preemergence, Rate 250 g/ha): 9
- Redroot pigweed plant response rating (pigweed; [6]): 10
- Plant response rating, Redroot pigweed (pigweed; [7]): 0
- Rape plant response rating (rape; [1]): 0
- Rape plant response rating (rape; [2]): 3
- Plant response rating, Rape (rape; [3]): 3
- Rape plant response rating (rape; [4]): 0
- Rape plant response rating (rape; [5]): 0
- Rape plant response rating (0 to 10 scale) (rape; Preemergence, Rate 250 g/ha): 6
- Rape plant response rating (rape; [6]): 9
- Soybean plant response rating (soybean; [1]): 2
- Soybean plant response rating (soybean; [2]): 2
- Plant response rating, Soybean (soybean; [3]): 3
- Soybean plant response rating (soybean; [4]): 0
- Soybean plant response rating (soybean; [5]): 0
- Soybean plant response rating (0 to 10 scale) (soybean; Preemergence, Rate 250 g/ha): 0
- Soybean plant response rating (soybean; [6]): 0
- Plant response rating, Soybean (soybean; [7]): 3
- Sugarbeets plant response rating (sugar beet; [1]): 0
- Sugarbeets plant response rating (sugar beet; [2]): 0
- Plant response rating, Sugarbeets (sugar beet; [3]): 5
- Sugarbeets plant response rating (sugar beet; [4]): 0
- Sugarbeets plant response rating (sugar beet; [5]): 0
- Sugarbeets plant response rating (0 to 10 scale) (sugar beet; Preemergence, Rate 250 g/ha): 5
- Sugarbeets plant response rating (sugar beet; [6]): 8
- Plant response rating, Sugarbeets (sugar beet; [7]): 2
- Velvetleaf plant response rating (velvetleaf; [1]): 0
- Velvetleaf plant response rating (velvetleaf; [2]): 0
- Plant response rating, Velvetleaf (velvetleaf; [3]): 2
- Velvetleaf plant response rating (velvetleaf; [4]): 0
- Velvetleaf plant response rating (velvetleaf; [5]): 0
- Velvetleaf plant response rating (0 to 10 scale) (velvetleaf; Preemergence, Rate 250 g/ha): 2
- Velvetleaf plant response rating (velvetleaf; [6]): 4
- Plant response rating, Velvetleaf (velvetleaf; [7]): 0
- Wheat plant response rating (wheat; [1]): 0
- Wheat plant response rating (wheat; [2]): 0
- Plant response rating, Wheat (wheat; [3]): 0
- Wheat plant response rating (wheat; [4]): 0
- Wheat plant response rating (wheat; [5]): 2
- Wheat plant response rating (0 to 10 scale) (wheat; Preemergence, Rate 250 g/ha): 2
- Wheat plant response rating (wheat; [6]): 2
- Plant response rating, Wheat (wheat; [7]): 0
- Wild oats plant response rating (wild oat; [1]): 0
- Wild oats plant response rating (wild oat; [2]): 2
- Plant response rating, Wild oats (wild oat; [3]): 3
- Wild oats plant response rating (wild oat; [4]): 0
- Wild oats plant response rating (wild oat; [5]): 0
- Wild oats plant response rating (0 to 10 scale) (wild oat; Preemergence, Rate 250 g/ha): 2
- Wild oats plant response rating (wild oat; [6]): 8
- Plant response rating, Wild oats (wild oat; [7]): 4
- Nutsedge plant response rating (purple nutsedge; [1]): 0
- Nutsedge plant response rating (purple nutsedge; [2]): 0
- Plant response rating, Nutsedge (purple nutsedge; [3]): 2
- Nutsedge plant response rating (purple nutsedge; [4]): 0
- Nutsedge plant response rating (purple nutsedge; [5]): 0
- Nutsedge plant response rating (0 to 10 scale) (purple nutsedge; Preemergence, Rate 250 g/ha): 0
- Nutsedge plant response rating (purple nutsedge; [6]): 6
- Plant response rating, Nutsedge (purple nutsedge; [7]): 0
- Plant response rating, Rice (0 to 10 scale, 0 is no effect, 10 is complete control) (rice; [8]): 0
- Rice plant response rating (0 to 10 scale, 0 is no effect, 10 is complete control) (rice; [9]): 0
- Rice plant response rating (rice; [10]): 0
- Rice plant response rating (rice; [11]): 0
- Plant response rating, S. Flatsedge (0 to 10 scale, 0 is no effect, 10 is complete control) (smallflower flatsedge; [8]): 0
- S. Flatsedge plant response rating (0 to 10 scale, 0 is no effect, 10 is complete control) (smallflower flatsedge; [9]): 0
- S. Flatsedge plant response rating (smallflower flatsedge; [10]): 0
- S. Flatsedge plant response rating (smallflower flatsedge; [11]): 0
- Plant response rating, Ducksalad (0 to 10 scale, 0 is no effect, 10 is complete control) (duck salad; [8]): 0
- Ducksalad plant response rating (0 to 10 scale, 0 is no effect, 10 is complete control) (duck salad; [9]): 0
- Ducksalad plant response rating (duck salad; [10]): 0
- Ducksalad plant response rating (duck salad; [11]): 0
- Plant response rating, Barnyardgrass (0 to 10 scale, 0 is no effect, 10 is complete control) (bamyardgrass; [8]): 0
- Barnyardgrass plant response rating (0 to 10 scale, 0 is no effect, 10 is complete control) (bamyardgrass; [9]): 0
- Barnyardgrass plant response rating (bamyardgrass; [10]): 0
- Barnyardgrass plant response rating (bamyardgrass; [11]): 0
